Series [1] addresses T1, protein-protein interaction between SOS1 and KRAS G12D (Homo sapiens, UniProt Q07889).
T1 construct: GST-TEV-SOS1 (564-1049) is purchased from Viva Biotech Ltd; purchased Viva Biotech Ltd. (GST-TEV-SOS1); Xtal BioStructures, Inc. (K-Ras G12D) Lot #X129-110 (K-Ras)
T1 sequence (Q07889 564-1049): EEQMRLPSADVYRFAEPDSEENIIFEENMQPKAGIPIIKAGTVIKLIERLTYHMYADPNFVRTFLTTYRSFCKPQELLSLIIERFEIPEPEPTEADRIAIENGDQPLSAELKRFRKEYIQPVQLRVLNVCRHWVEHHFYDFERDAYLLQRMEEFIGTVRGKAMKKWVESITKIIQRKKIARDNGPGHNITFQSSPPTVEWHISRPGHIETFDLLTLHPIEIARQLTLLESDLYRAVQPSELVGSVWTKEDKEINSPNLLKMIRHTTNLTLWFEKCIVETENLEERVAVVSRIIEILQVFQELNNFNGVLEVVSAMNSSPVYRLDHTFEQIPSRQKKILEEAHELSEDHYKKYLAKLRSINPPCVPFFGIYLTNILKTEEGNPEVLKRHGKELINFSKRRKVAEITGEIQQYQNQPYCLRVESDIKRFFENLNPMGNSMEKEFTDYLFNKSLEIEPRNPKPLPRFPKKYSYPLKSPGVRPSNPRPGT
The series is described as follows: KRAS::SOS1 AlphaScreen binding assay. The protocol: KRAS::SOS1 AlphaScreen Binding Assay
Low IC50 values are indicative of high potency of the SOS1 inhibitors in this assay setting:
10 nM (final assay concentration) KRAS G12D, 10 μM (final assay concentration) GDP and 5 nM (final assay concentration) GST-SOS1 are mixed in assay buffer prior to use and kept at room temperature.
AlphaLISA Glutathione Acceptor Beads and AlphaScreen Streptavidin Donor Beads are mixed in assay buffer at a concentration of 10 μg/mL (final assay concentration) each prior to use and kept at room temperature.
Compounds are diluted to a final start concentration of 100 μM and are tested in duplicate. Assay-ready plates (ARPs) are generated using an Access Labcyte Workstation with a Labcyte Echo 550 or 555 accoustic dispenser. For compound a start concentration of 100 μM, 150 nL of compound solution is transferred per well in 11 concentrations in duplicate with serial 1:5 dilutions.
The assay is run using a fully automated robotic system in a darkened room below 100 Lux. 10 μL of KRAS::SOS1 GDP mix is added into columns 1-24 to the 150 nL of compound solution (final dilution in the assay 1:100, final DMSO concentration 1%).
After a 30 minute incubation time 5 μL of bead mix is added into columns 1-23. Plates are kept at room temperature in a darkened incubator. After a further 60 minute incubation, the signal is measured using a PerkinElmer Envision HTS Multilabel Reader using the AlphaScreen specifications from PerkinElmer. Each plate contains the following controls: • diluted DMSO+KRAS::SOS1 GDP mix+bead mix • diluted DMSO+KRAS::SOS1 GDP mix
IC50 values are calculated and analyzed using a 4 parametric logistic model.
A general note: Bead proximity is the source of the signal in Alpha formats.

Series [2] deals with T2, CYP3A4 (Homo sapiens, UniProt P08684).
T2 construct: from tissue; host or cells: human liver microsomes
T2 sequence (P08684 whole entry): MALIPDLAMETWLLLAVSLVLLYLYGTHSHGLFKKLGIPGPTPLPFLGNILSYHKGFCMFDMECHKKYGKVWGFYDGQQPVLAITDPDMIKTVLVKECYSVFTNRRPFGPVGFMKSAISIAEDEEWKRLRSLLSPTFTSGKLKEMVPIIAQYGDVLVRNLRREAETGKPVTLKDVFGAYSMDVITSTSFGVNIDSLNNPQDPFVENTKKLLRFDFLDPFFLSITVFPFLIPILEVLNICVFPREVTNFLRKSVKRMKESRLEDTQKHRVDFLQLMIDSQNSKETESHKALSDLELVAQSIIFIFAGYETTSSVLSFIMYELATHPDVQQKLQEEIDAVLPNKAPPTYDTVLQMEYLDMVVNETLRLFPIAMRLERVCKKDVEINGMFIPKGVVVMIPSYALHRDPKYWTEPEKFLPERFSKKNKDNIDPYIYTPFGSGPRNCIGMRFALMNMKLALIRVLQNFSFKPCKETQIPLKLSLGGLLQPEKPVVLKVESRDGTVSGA
The series is described as follows: Time dependent inhibition of CYP3A4 assay (TDI 3A4). In kind it is in vitro ADME. Particulars: human liver microsomes, 25 uM test compound; hydroxy-midazolam formation after 30 min preincubation relative to 0 min preincubation. The method, then:
Time dependent inhibition of CYP3A4 Assay (TDI 3A4):
The time dependent inhibition towards CYP3A4 is assayed in human liver microsomes (0.02 mg/mL) with midazolam (15 μM) as a substrate. The test compounds are preincubated in presence of NADPH with human liver microsomes (0.2 mg/mL) at a concentration of 25 uM for 0 min and 30 min. After preincubation, the incubate is diluted 1:10 and the substrate midazolam is added for the main incubation (15 min). The main incubation is quenched with acetonitrile and the formation of hydroxy-midazolam is quantified via LC/MS-MS. The formation of hydroxy-midazolam from the 30 min preincubation relative to the formation from the 0 min preincubation is used as a readout. Values of less than 100% mean that the substrate midazolam is metabolized to a lower extend upon 30 min preincubation compared to 0 min preincubation. In general low effects upon 30 min preincubation are desired (corresponding to values close to 100%)
A general note: Microsomes from liver hold many membrane-bound enzymes, among them those of drug oxidation.

Series [3] is described as follows: Metabolic (microsomal) stability assay, mouse (MLM). In kind it is in vitro ADME. Particulars: mouse liver microsomes, 0.5 mg/mL protein, 1 μM test compound, 37° C.; predicted clearance as percent of liver blood flow. The method, then:
(§1) Metabolic (Microsomal) Stability Assay:
(§2) The metabolic degradation of the test compound is assayed at 37° C. with pooled liver microsomes (mouse (MLM), rat (RLM) or human (HLM)). The final incubation volume of 74 μL per time point contains TRIS buffer (pH 7.5; 0.1 M), magnesium chloride (6.5 mM), microsomal protein (0.5 mg/mL for mouse/rat, 1 mg/mL for human specimens) and the test compound at a final concentration of 1 μM. Following a short preincubation period at 37° C., the reactions are initiated by addition of 8 μL beta-nicotinamide adenine dinucleotide phosphate, reduced form (NADPH, 10 mM) and terminated by transferring an aliquot into solvent after different time points. Additionally, the NADPH-independent degradation is monitored in incubations without NADPH, terminated at the last time point by addition of acetonitrile. The quenched incubations are pelleted by centrifugation (1811 g, 5 min). An aliquot of the supernatant is assayed by LC-MS/MS for the amount of parent compound.
(§3) In vitro intrinsic clearance (CLint,in vitro) is calculated from the time course of the disappearance of the test drug during the microsomal incubation. […] For better across species comparison the predicted clearance is expressed as percent of the liver blood flow [% QH] in the individual species. […]

Series [4] can be described thus: Metabolic (microsomal) stability assay, human (HLM). In kind it is in vitro ADME. The following applies: human liver microsomes, 1 mg/mL protein, 1 μM test compound, 37° C.; predicted clearance as percent of liver blood flow. The method, then: as §1, §2, §3
The nature of series [5]: Metabolic (microsomal) stability assay, rat (RLM). In kind it is in vitro ADME. The following applies: rat liver microsomes, 0.5 mg/mL protein, 1 μM test compound, 37° C.; predicted clearance as percent of liver blood flow. The method, then: as §1, §2, §3
Series [6] deals with ERK phosphorylation (pERK Thr202/Tyr204) in DLD-1 cells (KRAS G13D). Kind of series: ERK phosphorylation assay (AlphaLISA SureFire Ultra p-ERK1/2) in DLD-1 cells. In kind it is cell-based. The following applies: Homo sapiens, 1 h compound incubation, EGF 50 ng/mL for 10 minutes. The protocol:
ERK Phosphorylation Assay
Low IC50 values are indicative of high potency of the SOS1 inhibitors in this assay setting.
ERK phosphorylation assays are performed using the following human cell lines:
DLD-1 (ATCC CCL-221): human colon cancer with a KRAS G13D mutation;
DLD-1 cells (ATCC CCL-221) are seeded at 50,000 cells per well in/60 μL of RPMI with 10% FBS, non-essential amino acids, pyruvate and glutamax in Greiner TC 384 plates. The cells are incubated for 1 h at room temperature and then incubated overnight in an incubator at 37° C. and 5% CO2 in a humidified atmosphere. 60 nL compound solution (10 mM DMSO stock solution) is then added using a Labcyte Echo 550 device. After a 1 h incubation in the aforementioned incubator, 3 μL Epidermal Growth Factor (EGF, final concentration 50 ng/mL) is added. […] After 20 minutes of incubation at room temperature with shaking, 6 μL of each lysate sample is transferred to a 384-well Proxiplate and analyzed for pERK (Thr202/Tyr204) with the AlphaLISA SureFire Ultra pERK1/2 (Thr202/Tyr204) Assay Kit. 3 μL Acceptor Mix and 3 μL Donor Mix are added under subdued light and incubated for 2 h at room temperature in the dark, before the signal is measured on a Perkin Elmer Envision plate reader using 384 AlphaScreen settings for Proxiplates. […]

Setting [7] is: KRAS G12D::SOS1 AlphaScreen, measured without EDTA unless marked with an asterisk.
The mark [8] stands for this setting: KRAS::SOS1 AlphaScreen, KRAS G12D, IC50, tables 20 and 24.

Regarding `C[C@@H](Nc1ncnc2c(C3CC3)c(=O)n(C3(C)CC3)cc12)c1cccc(C(F)F)c1F` [I-179], in series [1] (setting [7]), the IC50 (usually the concentration at which inhibition is half-maximal) worked out at 11 nM.

In the case of `Cc1nc(N[C@H](C)c2cccc(C(C)(F)F)c2)c2cn(C3(C(F)(F)F)CCOC3)c(=O)cc2n1` (stereo partly drawn) [I-129], the IC50 in series [1] (setting [7]) turned out to be 18 nM.

`Cc1nc(N[C@H](C)c2cccc(C(F)(F)F)c2C)c2cn(C34CCN(CC3)CC4)c(=O)cc2n1` [I-128]: in series [1] (setting [7]), the IC50 turned out to be 2 nM. In addition, the “TDI 3A4 [%]” value in series [2] was found to be 98%. In addition, the “MLM [% QH]” value in series [3] was under 24 % QH. The “HLM [% QH]” value in series [4] is 29 % QH. In series [5], the “RLM [% QH]” value is recorded as under 23 % QH.

`C[C@@H](Nc1ncnc2cc(=O)n(C34CC(F)(C3)C4)cc12)c1cccc(C(C)(F)F)c1F` [I-78] came in with an IC50 in series [1] (setting [8]) of 9 nM. The “MLM [% QH]” value in series [3] is listed as under 24 % QH. Also, in series [4], the “HLM [% QH]” value was under 24 % QH. For the same molecule, the “RLM [% QH]” value in series [5] is reported as under 23 % QH.

On to `Cc1nc(N[C@H](C)c2cccc(C(F)(F)F)c2C)c2cn([C@H]3C[C@H](F)C3)c(=O)cc2n1` [I-45], for which the values for the 50% inhibitory concentration (IC50) in series [6] and in series [1] (setting [8]) were 47 nM and 11 nM, respectively.

For `Cc1c(=O)n(C2(C)CC2)cc2c(N[C@H](C)c3cccc(C(F)(F)F)c3)ncnc12` [I-173], in series [1] (setting [8]), the 50% inhibitory concentration (IC50) stood at 18 nM. The “TDI 3A4 [%]” value in series [2] is on record as 84%.

Source of the values: US20220249492A1, “ANTICANCER COMBINATION THERAPY” (Boehringer Ingelheim International GmbH, priority 2019, published 2022).
